From the Deep4Chem optical property database
Each block holds one compound with its values, some of them ahead of it.

Assay: photoluminescence quantum yield (fraction); solvent given as SMILES

Structure (SMILES): CC(C)(C)c1ccc(-c2nnc(-c3c(-n4c5ccccc5c5ccccc54)c(-n4c5ccccc5c5ccccc54)c(-c4nnc(-c5ccc(C(C)(C)C)cc5)o4)c(-n4c5ccccc5c5ccccc54)c3-n3c4ccccc4c4ccccc43)o2)cc1
photoluminescence quantum yield (in c1cc(-n2c3ccccc3c3ccccc32)nc(-n2c3ccccc3c3ccccc32)c1): 0.89

Structure (SMILES): CCCCN1C(=O)c2cc(Oc3ccc(C(C)(C)C)cc3)c3c4c(Oc5ccc(C(C)(C)C)cc5)cc5c(=O)[nH]/c(=C\c6ccc7ccccc7n6)c6cc(Oc7ccc(C(C)(C)C)cc7)c(c7c(Oc8ccc(C(C)(C)C)cc8)cc(c2c37)C1=O)c4c56
photoluminescence quantum yield (in C1CCOC1): 0.3
photoluminescence quantum yield (in Cc1ccccc1): 0.313
photoluminescence quantum yield (in ClCCl): 0.332

Structure (SMILES): CC(C)(C)c1ccc(-c2ccc3c(-c4ccc(C(C)(C)C)c5ccccc45)cc4c5cc(-c6ccc(C(C)(C)C)c7ccccc67)ccc5c(-c5ccc(C(C)(C)C)c6ccccc56)cc4c3c2)c2ccccc12
photoluminescence quantum yield (in ClCCl): 0.72

Structure (SMILES): CCC1=C(C)C2=Cc3c4ccccc4c4n3[B-](c3ccc5cc6ccccc6cc5c3)(Oc3ccccc3-4)[N+]2=C1C (stereo unspecified)
photoluminescence quantum yield (in CC#N): 0.66
photoluminescence quantum yield (in CCCCCC): 0.75
photoluminescence quantum yield (in Cc1ccccc1): 0.68
photoluminescence quantum yield (in ClCCl): 0.76

Structure (SMILES): CCCCCCCN1C(=CC2=C([O-])C(=CC3=[N+](CCCCCCC)c4ccccc4C3(C)C)C2=C(C#N)C#N)Sc2ccccc21
photoluminescence quantum yield (in C1COCCO1): 0.16
photoluminescence quantum yield (in CCO): 0.15
photoluminescence quantum yield (in CN(C)C=O): 0.16
photoluminescence quantum yield (in ClC(Cl)Cl): 0.17

Structure (SMILES): CC(C)[Si](C#Cc1ccc(-c2c3cccc4c5cccc6c(-c7ccc(C#C[Si](C(C)C)(C(C)C)C(C)C)cc7)c7cccc8c9cccc2c9c(c34)c(c65)c78)cc1)(C(C)C)C(C)C
photoluminescence quantum yield (in Cc1ccccc1): 0.38

Structure (SMILES): CC/[NH+]=c1\cc2oc3cc(NCCO)c4ccccc4c3nc-2cc1C
photoluminescence quantum yield (in CCO): 0.49
photoluminescence quantum yield (in O): 0.36

Structure (SMILES): CC1=[N+]2C(=C(c3ccc(C(=O)c4ccccc4)cc3)c3ccc(C)n3[B-]2(F)F)C=C1c1cc2n(c1)[B-](F)(F)[N+]1=CC=CC1=C2c1c(C)cc(C)cc1C
photoluminescence quantum yield (in C1CCCCC1): 0.47
photoluminescence quantum yield (in CCOC(C)=O): 0.13

Structure (SMILES): CCCCCCC(CCCCCC)N1C(=O)c2cccc3c(-c4ccc(OC)c5cccc(C)c45)ccc(c23)C1=O
photoluminescence quantum yield (in CCCCCC): 0.34
photoluminescence quantum yield (in CCCCCCCCCCCCCC): 0.34
photoluminescence quantum yield (in CCCCCCCCCCCO): 0.28
photoluminescence quantum yield (in CCCCO): 0.047
photoluminescence quantum yield (in CN(C)C=O): 0.055
photoluminescence quantum yield (in Cc1ccccc1): 0.19
photoluminescence quantum yield (in ClC(Cl)Cl): 0.4

Structure (SMILES): CC(C)[Si](C#Cc1c2nsnc2c(C#C[Si](C(C)C)(C(C)C)C(C)C)c2nc3c(nc12)C1c2ccccc2C3c2ccccc21)(C(C)C)C(C)C
photoluminescence quantum yield (in CCCCCC): 0.66

Structure (SMILES): CCOC(=O)c1c2c3c(ccc([N+](=O)[O-])c3c3cc4c(cc13)[Si](C)(C)O[Si]4(C)C)N(C)C2=O
photoluminescence quantum yield (in CC#N): 0.3

Structure (SMILES): CC(=O)c1ccc(/C=C/C=C/C2=NC3C(=O)NC(N)=NC3N2[C@H]2C[C@H](O)[C@@H](CO)O2)cc1 (stereo partly specified)
photoluminescence quantum yield (in C1COCCO1): 0.59
photoluminescence quantum yield (in CC#N): 0.57
photoluminescence quantum yield (in CO): 0.015

Structure (SMILES): CC1=[N+]2C(=C(c3ccccc3)c3c4c(c(C)n3[B-]2(F)F)C2CCC4CC2)C2=C1C1CCC2CC1
photoluminescence quantum yield (in CC#N): 0.81

Structure (SMILES): c1ccc(-c2nc(-c3ccccc3)nc(-c3ccc(-n4c5ccccc5c5cc6c7ccccc7n7c8ccccc8c(c54)c67)cc3)n2)cc1
photoluminescence quantum yield (in O=P(c1ccccc1)(c1ccccc1)c1ccc2oc3ccc(P(=O)(c4ccccc4)c4ccccc4)cc3c2c1): 0.68

Structure (SMILES): CCn1c2ccccc2c2cc(C#Cc3cc(C#Cc4ccc5c(c4)c4ccccc4n5CC)nc(S(C)(=O)=O)n3)ccc21
photoluminescence quantum yield (in C1CCOC1): 0.74
photoluminescence quantum yield (in CCOC(C)=O): 0.75
photoluminescence quantum yield (in CN(C)C=O): 0.59
photoluminescence quantum yield (in Cc1ccccc1): 0.81
photoluminescence quantum yield (in ClCCl): 0.46

Structure (SMILES): Cc1cc(C)c2cc3cc(C)ncc3cc2c1
photoluminescence quantum yield (in CCO): 0.44

Structure (SMILES): CC(C)(C)c1cc(-c2c3cc(c(-c4cc(C(C)(C)C)cc(C(C)(C)C)c4)c4ccc([nH]4)c(-c4ccc([N+](=O)[O-])cc4)c4nc(c(-c5ccc([N+](=O)[O-])cc5)c5ccc2[nH]5)C=C4)N=C3)cc(C(C)(C)C)c1
photoluminescence quantum yield (in ClCCl): 0.0263

Structure (SMILES): O=C(c1ccc(-n2c3ccc(-c4ccccc4)cc3c3cc(-c4ccccc4)ccc32)cc1)c1ccc(-n2c3ccc(-c4ccccc4)cc3c3cc(-c4ccccc4)ccc32)cc1
photoluminescence quantum yield (in Cc1ccccc1): 0.153

Structure (SMILES): CC1(C)c2ccccc2N(c2ccc(-c3cccc(C#N)c3)cc2)c2ccccc21
photoluminescence quantum yield (in Cc1ccccc1): 0.112
photoluminescence quantum yield (in N#Cc1ccc2c(c1)c1ccccc1n2-c1cccc(-n2c3ccccc3c3ccccc32)c1): 0.15

Structure (SMILES): CC(C)(C)c1ccc2c(c1)c1cc(C(C)(C)C)ccc1n2-c1ccc(N(c2ccc(-c3ccc(-c4ccc(N(c5ccc(-n6c7ccc(C(C)(C)C)cc7c7cc(C(C)(C)C)ccc76)cc5)c5ccc(-n6c7ccc(C(C)(C)C)cc7c7cc(C(C)(C)C)ccc76)cc5)cc4)c4nsnc34)cc2)c2ccc(-n3c4ccc(C(C)(C)C)cc4c4cc(C(C)(C)C)ccc43)cc2)cc1
photoluminescence quantum yield (in ClCCl): 0.05

Structure (SMILES): CCCCc1ccc(-n2c3c4cc(F)ccc4nnc3c3c2c2nnc4ccc(F)cc4c2n3-c2ccc(CCCC)cc2)cc1
photoluminescence quantum yield (in Cc1ccccc1): 0

Structure (SMILES): N#Cc1ccc(/C=C/c2ccc3ccc4cccc5ccc2c3c45)cc1
photoluminescence quantum yield (in CC1CCCCC1): 0.8
photoluminescence quantum yield (in CC#N): 0.26
photoluminescence quantum yield (in CO): 0.26
photoluminescence quantum yield (in Cc1ccccc1): 0.79
photoluminescence quantum yield (in ClC(Cl)Cl): 0.3

Structure (SMILES): C=CCOc1nnc(OCCC(F)(F)C(F)(F)C(F)(F)C(F)(F)C(F)(F)C(F)(F)C(F)(F)C(F)(F)F)nn1
photoluminescence quantum yield (in ClCCl): 0.16
photoluminescence quantum yield (in OCC(F)(F)F): 0.02

Structure (SMILES): COCCC1=Cc2nc1ccc1[nH]c(cc1CCOC)c1nc(c(O)cc3[nH]c2cc3CCOC)C(CCOC)=C1
photoluminescence quantum yield (in Cc1ccccc1): 0.18

The remaining lines, values ahead:

photoluminescence quantum yield (in C1COCCO1): 0.78
photoluminescence quantum yield (in CC#N): 0.67
photoluminescence quantum yield (in CCCCCC): 0.72
photoluminescence quantum yield (in CCO): 0.62
Structure (SMILES): CCC12C(=C3C(=C4c5ccc(-c6ccc(C)s6)cc5S(=O)(=O)C41CC)C(F)(F)C(F)(F)C3(F)F)c1ccc(-c3ccc(C)s3)cc1S2(=O)=O (stereo unspecified)

photoluminescence quantum yield (in ClCCl): 0.127
Structure (SMILES): c1ccc(-c2nc(-c3ccc(N(c4ccccc4)c4ccccc4)cc3)n3ccccc23)cc1

photoluminescence quantum yield (in ClC(Cl)Cl): 0.1
photoluminescence quantum yield (in ClCCl): 0.1
Structure (SMILES): COc1ccc(C2=[N+]3C(=Nc4c(-c5ccccc5)c(Br)c(-c5ccc(OC)cc5)n4[B-]3(F)F)C(c3ccccc3)=C2Br)cc1

photoluminescence quantum yield (in CC#N): 0.012
photoluminescence quantum yield (in CO): 0.01
photoluminescence quantum yield (in O): 0.021
Structure (SMILES): CN(C)CCCN1c2ccccc2CCc2ccccc21

photoluminescence quantum yield (in ClC(Cl)Cl): 0.82
Structure (SMILES): F[B-]1(F)n2c(ccc2-c2cccs2)C(c2ccc(Br)cc2)=C2C=CC(c3cccs3)=[N+]21

photoluminescence quantum yield (in ClC(Cl)Cl): 0.61
Structure (SMILES): N#CC1=CC(C#Cc2ccccc2)=CC(C#N)=P1(c1ccccc1)c1ccccc1

photoluminescence quantum yield (in c1cc(-c2cccc(-n3c4ccccc4c4ccccc43)c2)cc(-n2c3ccccc3c3ccccc32)c1): 0.296
Structure (SMILES): O=C1c2ccccc2S(=O)(=O)c2ccc(-n3c4ccccc4c4ccccc43)cc21

photoluminescence quantum yield (in ClCCl): 0.053
Structure (SMILES): Cc1cc2sccc2c2[nH]c3ccccc3c12

photoluminescence quantum yield (in C1COCCO1): 0.068
photoluminescence quantum yield (in CC#N): 0.011
photoluminescence quantum yield (in CCCCOCCCC): 0.12
photoluminescence quantum yield (in CCOC(C)=O): 0.014
Structure (SMILES): Clc1nc(Cl)nc(Nc2ccc3c4cccc5cccc(c6cccc2c63)c54)n1

photoluminescence quantum yield (in ClCCl): 0.21
Structure (SMILES): CN(C)c1ccc(-c2cc(-c3ccc(C#N)cc3)nn2C)cc1

photoluminescence quantum yield (in C1COCCO1): 0.153
Structure (SMILES): CC(C)CN1C(=O)/C(=C/c2ccc(C#N)cc2)C=C1c1ccccc1

photoluminescence quantum yield (in ClC(Cl)Cl): 0.28
Structure (SMILES): COc1ccc(N(c2ccc(OC)cc2)c2ccc(-c3ccc(-c4ccc(-c5cccs5)c5nsnc45)s3)cc2)cc1

photoluminescence quantum yield (in ClCCl): 0.0685
Structure (SMILES): COc1ccc(C2=CC(c3ccccc3)=C(c3ccccc3)C2)c2ccccc12

photoluminescence quantum yield (in C1COCCO1): 0.51
photoluminescence quantum yield (in CC#N): 0.43
photoluminescence quantum yield (in CCCCOCCCC): 0.46
photoluminescence quantum yield (in CCOC(C)=O): 0.47
Structure (SMILES): COc1nc(Nc2ccc3c4cccc5cccc(c6cccc2c63)c54)nc(OC)n1

photoluminescence quantum yield (in CC#N): 0.1
photoluminescence quantum yield (in ClCCl): 0.05
Structure (SMILES): Cc1cc(-c2ccccc2C)cc(C)[o+]1

photoluminescence quantum yield (in ClCCl): 0.71
Structure (SMILES): O=P1(c2ccccc2)c2ccccc2-c2sc3ccccc3c21 (stereo unspecified)

photoluminescence quantum yield (in CO): 0.25
Structure (SMILES): COc1ccc(-c2nc(-c3cccc(OC)c3)[nH]c2-c2ccc(OC)cc2)cc1

photoluminescence quantum yield (in CC#N): 0.38
photoluminescence quantum yield (in ClCCl): 0.385
Structure (SMILES): COc1ccccc1-c1nc(-c2ccccc2)c2ccccn12

photoluminescence quantum yield (in CS(C)=O): 0.65
Structure (SMILES): Cn1c2ccccc2c(=O)c2ccccc21

photoluminescence quantum yield (in CS(C)=O): 0.03
Structure (SMILES): COc1ccc(/N=N/c2c(O)c3ccccc3n(C)c2=O)c(S(=O)(=O)O)c1

photoluminescence quantum yield (in C1CCOC1): 0.287
Structure (SMILES): O=c1oc2cccc3c4cccc5ccc6c7ccccc7c1c(c23)c6c54

photoluminescence quantum yield (in C1CCOC1): 0.006
Structure (SMILES): O=S1(=O)C(c2cccs2)=C(c2cccs2)c2ccccc21

photoluminescence quantum yield (in C1CCOC1): 0.7
photoluminescence quantum yield (in C1COCCO1): 0.73
photoluminescence quantum yield (in CC#N): 0.64
photoluminescence quantum yield (in CC(C)O): 0.5
photoluminescence quantum yield (in CCO): 0.43
photoluminescence quantum yield (in CCOC(C)=O): 0.68
photoluminescence quantum yield (in CN(C)C=O): 0.76
photoluminescence quantum yield (in CO): 0.33
photoluminescence quantum yield (in CS(C)=O): 0.82
photoluminescence quantum yield (in O): 0.55
Structure (SMILES): Cc1ccc(C2CC(c3ccc(O)cc3)=NN2c2ccc(S(N)(=O)=O)cc2)cc1 (stereo unspecified)

photoluminescence quantum yield (in O): 0.008
Structure (SMILES): [NH3+]c1cc([NH3+])cc(-c2[nH+]c3ccccc3s2)c1

photoluminescence quantum yield (in CN(C)C=O): 0.012
photoluminescence quantum yield (in ClCCl): 0.0046
Structure (SMILES): C1=Cc2nc1c(-c1cccs1)c1ccc([nH]1)c(-c1cccs1)c1nc(c(-c3cccs3)c3ccc([nH]3)c2-c2cccs2)C=C1

photoluminescence quantum yield (in ClC(Cl)Cl): 0.36
photoluminescence quantum yield (in ClCCl): 0.36
Structure (SMILES): COc1ccc(C2=[N+]3C(=Nc4c(-c5ccccc5)cc(-c5ccc(OC)cc5)n4[B-]3(F)F)C(c3ccccc3)=C2)cc1

photoluminescence quantum yield (in ClC(Cl)Cl): 0.14
Structure (SMILES): CCc1cc(CC)cc(-n2c3ccccc3c3cc4c(cc32)c2ccccc2n4-c2cc(CC)cc(CC)c2)c1

photoluminescence quantum yield (in ClCCl): 0.44
Structure (SMILES): C[Si]1(C)O[Si](C)(C)c2cc3nc4ccc([N+](=O)[O-])cc4c(-c4ccccc4)c3cc2[Si](C)(C)O1

photoluminescence quantum yield (in CC(C)O): 0.11
Structure (SMILES): CC[n+]1c(C=C2C(=O)C(C=C3N(C)c4ccccc4C3(C)C)=C2[O-])[se]c2ccccc21
